From patent US20220323406A1, “METHODS AND COMPOSITIONS FOR DIFFERENTIATING STEM CELLS” (Massachusetts Institute of Technology, priority 2019, published 2022) come the findings set out here.

Assay [1] relates to ENR+CD organoids (ISC to Paneth cell differentiation). Briefly: Primary screen: basal (non-stimulated) lysozyme secretion LYZ.NS, 2.5-D 384-well ENR+CD organoid differentiation. The assay is classed as cell-based, mouse. The settings on record: primary screen; for Z.LYZ.NS: standard z score. The source says: (§1) High-throughput screening.
Assay [2] shares this test system. The assay is described as follows: Primary screen: CCh-stimulated lysozyme secretion LYZ.S, 2.5-D 384-well ENR+CD organoid differentiation. Format: cell-based, mouse. Particulars: primary screen.
Excerpt: as §1

The test system of a further assay is ENR+CD organoids. Briefly: Primary screen: ATP (CellTiter-Glo 3D, CTG) cell number/viability, 2.5-D 384-well ENR+CD organoids.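 Further: compounds given at plating and again on day 3 over a 6-day differentiation from ENR+CV stem-cell-enriched precursors, ATP measured on day 6, plate median as control.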 The settings on record: primary screen. On the technique in general: ATP-based viability assays read luminescence as a measure of living cells.
Setting [3] is: 1st dose row of the treatment (0.08 uM by row order; dose not reprinted).
[4] abbreviates: 2nd dose row of the treatment (0.40 uM by row order; dose not reprinted).
[5] abbreviates: 3rd dose row of the treatment (2.00 uM by row order; dose not reprinted).
Setting [6] is: 4th dose row of the treatment (10.00 uM by row order; dose not reprinted).

For `O=C(N/N=C/c1ccc(O)c(O)c1)c1cc2ccccc2cc1O` [Dynasore], the Dose.FC.LYZ.NS in assay [1] (dose 0.08 uM) is 0.049 log2 fold change; in assay [1] (dose 0.40 uM) it was −0.020 log2 fold change; in assay [1] (dose 2.00 uM) it was 0.036 log2 fold change; in assay [1] (dose 10.00 uM) it was 0.048 log2 fold change. The Z.LYZ.NS in assay [1] (dose 0.08 uM) is on record as 0.431; in assay [1] (dose 0.40 uM) it was −0.176; in assay [1] (dose 2.00 uM), 0.314; in assay [1] (dose 10.00 uM), 0.414. Moreover, the Dose.FC.LYZ.S in assay [2] (dose 0.08 uM) is 0.078 log2 fold change; in assay [2] (dose 0.40 uM), 0.122 log2 fold change; in assay [2] (dose 2.00 uM) it was −0.024 log2 fold change; in assay [2] (dose 10.00 uM) it was 0.041 log2 fold change. Also, the Dose.FC.CTG in the assay on ENR+CD organoids (dose 0.08 uM) is on record as −0.248 log2 fold change; in the assay with ENR+CD organoids (dose 0.40 uM), −0.253 log2 fold change; in the assay with ENR+CD organoids (dose 2.00 uM) it was −0.152 log2 fold change; in the assay on ENR+CD organoids (dose 10.00 uM) it was −0.011 log2 fold change.

For `CCCCc1nc(Cl)c(CO)n1Cc1ccc(-c2ccccc2-c2nnn[n-]2)cc1.[K+]` [Losartan Potassium (DuP 753)], the “Dose.FC.LYZ.NS (log2 fold change)” value was 0.052 in assay [1] (dose 0.08 uM), 0.038 in assay [1] (dose 0.40 uM), −0.042 in assay [1] (dose 2.00 uM) and 0.062 in assay [1] (dose 10.00 uM). The “Z.LYZ.NS (standard z score)” value in assay [1] (dose 0.08 uM) is 0.449; in assay [1] (dose 0.40 uM), 0.329; in assay [1] (dose 2.00 uM), −0.362; in assay [1] (dose 10.00 uM), 0.540. In addition, the “Dose.FC.LYZ.S (log2 fold change)” value in assay [2] (dose 0.08 uM) is on record as −0.017; in assay [2] (dose 0.40 uM), 0.027; in assay [2] (dose 2.00 uM), −0.080; in assay [2] (dose 10.00 uM) it was −0.025. The “Dose.FC.CTG (log2 fold change)” value in the assay on ENR+CD organoids (dose 0.08 uM) was −0.152; with ENR+CD organoids (dose 0.40 uM) it was −0.175; in the assay with ENR+CD organoids (dose 2.00 uM), −0.081; in the assay on ENR+CD organoids (dose 10.00 uM) it was −0.137. Also, the “Z.CTG (standard z score)” value in the assay with ENR+CD organoids (dose 0.08 uM) is −0.362; in the assay with ENR+CD organoids (dose 0.40 uM) it was −0.418; in the assay with ENR+CD organoids (dose 2.00 uM), −0.193; in the assay with ENR+CD organoids (dose 10.00 uM), −0.328.

Regarding `N#Cc1ccc(C(c2ccc(C#N)cc2)n2cncn2)cc1` [Letrozole], the “Dose.FC.LYZ.NS (log2 fold change)” value in assay [1] (dose 0.08 uM) is 0.065; in assay [1] (dose 0.40 uM) it was 0.128; in assay [1] (dose 2.00 uM) it was 0.009; in assay [1] (dose 10.00 uM), −0.008. Moreover, the “Z.LYZ.NS (standard z score)” value in assay [1] (dose 0.08 uM) is on record as 0.570; in assay [1] (dose 0.40 uM) it was 1.115; in assay [1] (dose 2.00 uM) it was 0.082; in assay [1] (dose 10.00 uM) it was −0.068. Further, the “Dose.FC.LYZ.S (log2 fold change)” value is on record as 0.040 in assay [2] (dose 0.08 uM), 0.150 in assay [2] (dose 0.40 uM), 0.006 in assay [2] (dose 2.00 uM) and 0.006 in assay [2] (dose 10.00 uM). Moreover, the “Dose.FC.CTG (log2 fold change)” value with ENR+CD organoids (dose 0.08 uM) was −0.013; in the assay with ENR+CD organoids (dose 0.40 uM), 0.101; in the assay with ENR+CD organoids (dose 2.00 uM) it was 0.099; in the assay on ENR+CD organoids (dose 10.00 uM), 0.171.

On to (−)-MK 801 Maleate, for which the “SSMD.LYZ.NS_Rep (strictly standardized mean difference)” value in assay [1] (setting [3]) is on record as 0.070; in assay [1] (setting [4]), −0.550; in assay [1] (setting [5]) it was −1.315; in assay [1] (setting [6]), −1.708. In addition, the Dose.FC.LYZ.NS in assay [1] (dose 0.08 uM) is reported as 0.008 log2 fold change; in assay [1] (dose 0.40 uM) it was −0.099 log2 fold change; in assay [1] (dose 2.00 uM) it was −0.256 log2 fold change; in assay [1] (dose 10.00 uM) it was −0.259 log2 fold change. Moreover, the “Z.LYZ.NS (standard z score)” value is recorded as 0.072 in assay [1] (dose 0.08 uM), −0.864 in assay [1] (dose 0.40 uM), −2.227 in assay [1] (dose 2.00 uM) and −2.255 in assay [1] (dose 10.00 uM). Further, the “SSMD.LYZ.S_Rep (strictly standardized mean difference)” value was 0.116 in assay [2] (setting [3]), −0.976 in assay [2] (setting [4]), −1.187 in assay [2] (setting [5]) and −1.768 in assay [2] (setting [6]). In addition, the “Z.LYZ.S (standard z score)” value in assay [2] (setting [3]) is 0.099; in assay [2] (setting [4]), −1.159; in assay [2] (setting [5]), −2.160; in assay [2] (setting [6]), −2.604. Also, the Dose.FC.LYZ.S in assay [2] (dose 0.08 uM) is listed as 0.015 log2 fold change; in assay [2] (dose 0.40 uM), −0.179 log2 fold change; in assay [2] (dose 2.00 uM), −0.334 log2 fold change; in assay [2] (dose 10.00 uM), −0.403 log2 fold change. Besides, the “SSMD.CTG.Rep (strictly standardized mean difference)” value in the assay on ENR+CD organoids (setting [3]) is recorded as 0.442; in the assay on ENR+CD organoids (setting [4]), −1.342; in the assay on ENR+CD organoids (setting [5]), −1.102; in the assay on ENR+CD organoids (setting [6]), −1.696. For the same compound, the Dose.FC.CTG is listed as 0.127 log2 fold change with ENR+CD organoids (dose 0.08 uM), −0.377 log2 fold change in the assay on ENR+CD organoids (dose 0.40 uM), −0.702 log2 fold change in the assay with ENR+CD organoids (dose 2.00 uM) and −0.936 log2 fold change in the assay with ENR+CD organoids (dose 10.00 uM). For the same compound, the “Z.CTG (standard z score)” value in the assay on ENR+CD organoids (dose 0.08 uM) is listed as 0.303; in the assay on ENR+CD organoids (dose 0.40 uM), −0.899; with ENR+CD organoids (dose 2.00 uM), −1.677; in the assay on ENR+CD organoids (dose 10.00 uM) it was −2.236.

`C[C@]12CC[C@@H]3c4ccc(O)cc4C[C@@H](CCCCCCCCC[S+]([O-])CCCC(F)(F)C(F)(F)F)[C@H]3[C@@H]1CC[C@@H]2O` (some centres unmarked) [Fulvestrant]: the Dose.FC.LYZ.NS in assay [1] (dose 0.08 uM) is 0.057 log2 fold change; in assay [1] (dose 0.40 uM) it was −0.050 log2 fold change; in assay [1] (dose 2.00 uM), 0.000 log2 fold change; in assay [1] (dose 10.00 uM), −0.043 log2 fold change. Moreover, the Z.LYZ.NS in assay [1] (dose 0.08 uM) is given as 0.500; in assay [1] (dose 0.40 uM) it was −0.432; in assay [1] (dose 2.00 uM) it was 0.003; in assay [1] (dose 10.00 uM), −0.376. Besides, the Dose.FC.LYZ.S in assay [2] (dose 0.08 uM) is listed as 0.051 log2 fold change; in assay [2] (dose 0.40 uM), −0.049 log2 fold change; in assay [2] (dose 2.00 uM) it was −0.024 log2 fold change; in assay [2] (dose 10.00 uM), −0.150 log2 fold change. In addition, the Dose.FC.CTG is 0.119 log2 fold change in the assay with ENR+CD organoids (dose 0.08 uM), −0.063 log2 fold change in the assay on ENR+CD organoids (dose 0.40 uM), 0.142 log2 fold change with ENR+CD organoids (dose 2.00 uM) and −0.204 log2 fold change in the assay with ENR+CD organoids (dose 10.00 uM).
